{"source": "patent US20020188010A1", "about": "“Compositions of matter containing L-glutamine and pyridoxal-alpha-ketoglutarate” (priority 2001, published 2002)", "key": {"[1]": {"test_system": "IBS (6 yrs duration)", "assay": "Improvement of IBS in patients given L-glutamine alone or L-glutamine/PAK", "assay_type": "in vivo", "source_text": "(§1) [table] While the compositions of the invention have been tested on patients suffering from disorders affecting the intestinal mucosa, the methods of the invention are appropriate for use in treating other diseases wherein stimulation of cell growth or repair of cells with natural rapid turn-over is desirable. Such diseases include, but are not limited to, leaky gut syndrome and other diseases of maldigestion, chronic fatigue syndrome, fibromyalgia, diabetes, thyroiditis and chronic viral disease. The combination therapy described herein will, by enhancing the growth and the repair of intestinal cells, increase the ability of the intestinal wall to reject and neutralize parasites and inhibit overgrowth of fungal organisms."}, "[2]": {"test_system": "Ileitis (9 yrs duration)", "assay": "Improvement of ileitis in patients given L-glutamine alone or L-glutamine/PAK", "assay_type": "in vivo", "source_text": "as §1"}}}
{"smiles": "NC(=O)CC[C@H](N)C(=O)O", "note": "[L-glutamine]", "values": [{"measurement": "percent of improvement upon administration of the L-glutamine alone", "setting": "[1]; dose 3 gm L-glutamine", "value": "none"}, {"measurement": "percent of improvement upon administration of the L-glutamine alone", "setting": "[1]; dose 15 gm L-glutamine", "value": 25, "unit": "%"}, {"measurement": "percent of improvement upon administration of the L-glutamine alone", "setting": "[1]; dose 30 gm L-glutamine", "value": 45, "unit": "%"}, {"measurement": "percent of improvement upon administration of the L-glutamine alone", "setting": "[1]; dose 60 gm L-glutamine", "value": 85, "unit": "%"}, {"measurement": "percent of improvement upon administration of the L-glutamine alone", "setting": "[2]; dose 3 gm L-glutamine", "value": 5, "unit": "%"}, {"measurement": "percent of improvement upon administration of the L-glutamine alone", "setting": "[2]; dose 15 gm L-glutamine", "value": 20, "unit": "%"}, {"measurement": "percent of improvement upon administration of the L-glutamine alone", "setting": "[2]; dose 30 gm L-glutamine", "value": 50, "unit": "%"}, {"measurement": "percent of improvement upon administration of the L-glutamine alone", "setting": "[2]; dose 60 gm L-glutamine", "value": 90, "unit": "%"}]}
